“And” between values parts separate entries of the source, which are not always exact repeats. Equal values may be shown once.

Data set [1] deals with SUDHL10. Briefly: Anti-proliferative effect (CellTiter-Glo, 72 h), SUDHL10. The data set is classed as cell-based. Particulars: Homo sapiens, SU-DHL10, 72 h, SUDHL10 cells, antiproliferation, 72 h incubation, median, read-out: Antiproli SUDHL10 [M] (median). An outline of the steps: (§1)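 Viable cells quantified with CellTiter-Glo after 72 h at 37 °C; rim wells excluded; day 0 plate as baseline.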
For orientation: ATP-based viability assays read luminescence as a measure of living cells.

Data set [2] concerns SUDHL5. Briefly: Induction of caspase-3/7 activity (Caspase-Glo 3/7), SUDHL5. Format: cell-based. Particulars: Homo sapiens, SU-DHL-5, 3 h, caspase-3/7 induction, SUDHL5 cells, 3 h treatment; median. Put shortly:
(§2)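 Caspase-Glo 3/7 luminescence, 3 h compound exposure, 37 °C, humidified. Minus medium-only blank. EC50 fit: C0=1, plateau = reference max induction.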

Data set [3] deals with SUDHL10. As to the kind of experiment: Induction of caspase-3/7 activity (Caspase-Glo 3/7), SUDHL10. The data set is classed as cell-based. Particulars: Homo sapiens, SU-DHL10, 3 h, caspase-3/7 induction, SUDHL10 cells, 3 h treatment; median. Put shortly: as §2
Data set [4] deals with MCL-1 (Homo sapiens, UniProt Q07820). Briefly: Protein-protein interaction assay MCL-1/Noxa BH3 peptide (MCL-1 assay), TR-FRET. The data set is classed as binding. Particulars: MBP-MCL-1 / Noxa BH3-derived peptide, median. Put shortly: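 Displacement of the biotinylated Noxa BH3 peptide from MBP-tagged human MCL-1 (1 nM) is detected by time-resolved FRET. Compounds are tested in duplicate across eleven concentrations up to 20 μM, incubated 1 h at 22 °C and overnight at 4 °C, and IC50 is fitted with a four-parameter equation.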
Sequence of MCL-1 (Q07820 whole entry): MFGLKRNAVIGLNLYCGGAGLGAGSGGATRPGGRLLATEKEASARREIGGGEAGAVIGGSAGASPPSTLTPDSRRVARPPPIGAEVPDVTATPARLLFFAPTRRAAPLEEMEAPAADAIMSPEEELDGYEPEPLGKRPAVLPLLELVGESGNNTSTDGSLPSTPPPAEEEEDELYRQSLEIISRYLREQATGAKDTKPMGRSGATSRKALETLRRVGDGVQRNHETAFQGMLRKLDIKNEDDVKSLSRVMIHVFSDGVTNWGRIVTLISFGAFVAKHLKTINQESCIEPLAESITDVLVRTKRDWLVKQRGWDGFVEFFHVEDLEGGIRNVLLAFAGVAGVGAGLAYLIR
In general terms: TR-FRET usually uses a lanthanide donor and a delayed reading to cut background.

The test system of data set [5] is SUDHL5. Briefly: Induction of cytotoxicity (CellTiter-Glo, 5 h), SUDHL5. Particulars: Homo sapiens, SU-DHL-5, 5 h, read-out: Cytotox SUDHL5 [M] (median), SUDHL5 cells, cytotoxicity induction, CellTiter-Glo, 5 h incubation, median.
Data set [6] has as its system SUDHL5. Briefly: Anti-proliferative effect (CellTiter-Glo, 72 h), SUDHL5. Format: cell-based. As to conditions: Homo sapiens, SU-DHL-5, 72 h, SUDHL5 cells, antiproliferation, 72 h incubation, median, read-out: Antiproli SUDHL5 [M] (median). Put shortly: as §1
Data set [7] has as its system SUDHL10. Briefly: Induction of cytotoxicity (CellTiter-Glo, 5 h), SUDHL10.
Data set [8] relates to OPM2. As to the kind of experiment: Anti-proliferative effect (CellTiter-Glo, 72 h), OPM2. The data set is classed as cell-based. As to conditions: Homo sapiens, OPM-2, 72 h, OPM2 cells, median, read-out: IC50 antiproliferation assay OPM2 [M] (median). An outline of the steps:
as §1

The subject of data set [9] is A2780. As to the kind of experiment: Anti-proliferative effect (CellTiter-Glo, 72 h), A2780. Format: cell-based. As to conditions: Homo sapiens, A2780, 72 h, A2780 cells, median, read-out: IC50 antiproliferation assay A2780 [M] (median). An outline of the steps: as §1
Setting [10] is: Homo sapiens, SU-DHL10, 5 h, read-out: Cytotox SUDHL10 [M] (median), SUDHL10 cells, cytotoxicity induction, CellTiter-Glo, 5 h incubation, median.

Broadly, the EC50 is the concentration that produces a half-maximal response. As to `COCC(=O)N1CCN(c2ccc(OCc3nn(C)c4c3-c3cccc5c(CCCOc6cccc7ccccc67)c(C(=O)O)n(c35)CCCCOC4)cc2)CC1` (racemic) [Example 1-27, (rac)-3-({4-[4-(methoxyacetyl)piperazin-1-yl]phenoxy}methyl)-1-methyl-7-[3-(naphthalen-1-yloxy)propyl]-1,10,11,12,13,15-hexahydropyrazolo[4′,3′:9,10][1,6]oxazacycloundecino[8,7,6-hi]indole-8-carboxylic Acid], the IC50 in data set [1] came out at 6.3e-06 M; in [4] it was 2.08 nM; in [5], 3.53e-06 M; in data set [6], 2.95e-06 M; in data set [7] (setting [10]), 8.44e-06 M; in data set [8], 8.75e-06 M. Also, the IC50 in data set [9] turned out to be 2.23e-05 M. For the same compound, the concentration giving a half-maximal response (EC50) in data set [2] turned out to be 4.42 µM; in [3], 7.5 µM.
Regarding `Cc1nn(C)c2c1-c1cccc3c(CCCOc4cccc5ccccc45)c(C(=O)O)n(c13)CCCCOC2` (racemic) [Example 1-33, (rac)-1,3-dimethyl-7-[3-(naphthalen-1-yloxy)propyl]-1,10,11,12,13,15-hexahydropyrazolo[4′,3′:9,10][1,6]oxazacycloundecino[8,7,6-hi]indole-8-carboxylic Acid], the IC50 in data set [1] amounted to 1.83e-05 M; in data set [4], 9 nM; in data set [5] it was 7.47e-06 M; in [6] it was 9.78e-06 M; in data set [7] (setting [10]), 2.19e-05 M; in [8], 2.23e-05 M. Moreover, in data set [9], the IC50 was more than 3.3e-05 M. Besides, the EC50 in data set [2] turned out to be 5.78 µM; in data set [3], 13.7 µM.
On to `CN(C)S(=O)(=O)N1CCN(c2ccc(OCc3nn(C)c4c3-c3cccc5c(CCCOc6cccc7ccccc67)c(C(=O)O)n(c35)CCCCCC4)cc2)CC1` (racemic) [Example 1-39, (rac)-3-({4-[4-(dimethysulfamoyl)piperazin-1-yl]phenoxy}methyl)-1-methyl-7-[3-(naphthalen-1-yloxy)propyl]-10,11,12,13,14,15-hexahydro-1H-pyrazolo[4′,3′:4,5]azacycloundecino[3,2,1-hi]indole-8-carboxylic Acid], for which the IC50 in [1] was 2.14e-05 M; in data set [4] it was 2.51 nM; in [5], 2.05e-06 M; in data set [6], 5.77e-06 M; in data set [7] (setting [10]), 1.82e-06 M; in [8], more than 3.3e-05 M. Moreover, in [9], the IC50 was more than 3.3e-05 M. Also, the values for the EC50 in [2] and in data set [3] were 3.47 µM and 2.45 µM, respectively.
For the compound `CN1CCCn2c(C(=O)O)c(CCCOc3cccc4ccccc34)c3cccc(c32)-c2c(CN3CCOCC3)nn(C)c2C1` (racemic) [Example 1-42, (rac)-7,9-dimethyl-11-(morpholin-4-ylmethyl)-1-[3-(naphthalen-1-yloxy)propyl]-4,5,6,7,8,9-hexahydropyrazolo[3′,4′:7,8][1,5]diazecino[9,10,1-hi]indole-2-carboxylic Acid], the IC50 in data set [1] is 1.64e-05 M; in data set [4] it was 20.2 nM; in data set [5], 1.19e-05 M; in data set [6], 7.08e-06 M; in data set [7] (setting [10]) it was more than 3.3e-05 M; in data set [8], 3.29e-05 M. For the same compound, in data set [9], the IC50 was more than 3.3e-05 M. Further, the concentration giving a half-maximal response (EC50) is 10.9 µM in data set [2] and 14.9 µM in [3].
For the compound `Cn1nc(COc2ccc(C3(O)CCOCC3)cc2)c2c1COCC=CCn1c(C(=O)O)c(CCCOc3cccc4ccccc34)c3cccc-2c31` (racemic) [Example 1-60, (rac)-(E/Z)-3-{[4-(4-hydroxytetrahydro-2H-pyran-4-yl)phenoxy]methyl}-1-methyl-7-[3-(naphthalen-1-yloxy)propyl]-1,10,13,15-tetrahydropyrazolo[4′,3′ 9,10][1,6]oxazacycloundecino[8,7,6-hi]indole-8-carboxylic Acid], the IC50 in [1] was 9.02e-06 M; in [4], 17.1 nM; in data set [5] it was 2.1e-05 M; in [6], 1.3e-05 M; in [7] (setting [10]) it was 3.27e-05 M; in data set [8], more than 3.3e-05 M. In addition, the IC50 in [9] was found to be 2.88e-05 M. For the same compound, the concentration for a half-maximal effect (EC50) is 19.5 µM in data set [2] and 25.9 µM in [3].
Consider `COC1(c2ccc(OCc3nn(C)c4c3-c3cccc5c(CCCOc6cccc7ccccc67)c(C(=O)O)n(c35)CC=CCOC4)cc2)CCOCC1` (racemic) [Example 1-64, (rac)-(E/Z)-3-{[4-(4-methoxytetrahydro-2H-pyran-4-yl)phenoxy]methyl}-1-methyl-7-[3-(naphthalen-1-yloxy)propyl]-1,10,13,15-tetrahydropyrazolo[4′,3′:9,10][1,6]oxazacycloundecino[8,7,6-hi]indole-8-carboxylic Acid], for which the IC50 in data set [1] is 7.4e-06 M; in data set [4], 98.8 nM; in data set [5], 2.65e-05 M; in data set [6], 1.2e-05 M; in [7] (setting [10]) it was more than 3.3e-05 M; in data set [7] (read-out: Cytotox SUDHL10 [M] (median), SUDHL10 cells, cytotoxicity induction, CellTiter-Glo, 5 h incubation, median), 3.12e-05 M and 2.47e-05 M. For the same compound, the IC50 amounted to 2.15e-05 M in data set [8] and 1.21e-05 M in data set [9]. In addition, the EC50 turned out to be 19.9 µM in data set [2] and 29.4 µM in data set [3].
For `CC(C)OCc1nn(C)c2c1-c1cccc3c(CCCOc4cccc5c4CCCC5)c(C(=O)O)n(c13)CCCCOC2` (racemic) [Example 1-69, (rac)-1-methyl-3-[(propan-2-yloxy)methyl]-7-[3-(5,6,7,8-tetrahydronaphthalen-1-yloxy)propyl]-1,10,11,12,13,15-hexahydropyrazolo[4′,3′:9,10][1,6]oxazacycloundecino[8,7,6-hi]indole-8-carboxylic Acid], the IC50 in data set [1] is more than 3.3e-05 M; in data set [4], 11.8 nM; in data set [5], 2.71e-05 M; in data set [6] it was more than 3.3e-05 M; in data set [7] (setting [10]), more than 3.3e-05 M; in data set [8] it was more than 3.3e-05 M. Besides, the IC50 in [9] is more than 3.3e-05 M. The EC50 in data set [2] and in data set [3] was more than 33 µM each time.
With `CC(C)OCc1nn(C)c2c1-c1cccc3c(CCCOc4cccc5ccccc45)c(C(=O)O)n(c13)CCCCN(C)C2` (racemic) [Example 1-73, (rac)-1,14-dimethyl-7-[3-(naphthalen-1-yloxy)propyl]-3-[(propan-2-yloxy)methyl]-10,11,12,13,14,15-hexahydro-1H-pyrazolo[3′,4′:8,9][1,6]diazacycloundecino[10,11,1-hi]indole-8-carboxylic Acid], the IC50 in data set [1] was 9.04e-06 M; in [4] it was 7.13 nM; in [5] it was 7e-06 M; in [6], 3.68e-06 M; in data set [7] (setting [10]), 1.53e-05 M; in data set [8], 1.17e-05 M. Besides, in [9], the IC50 worked out at 1.82e-05 M. Moreover, the EC50 in data set [2] stood at 6.83 µM; in data set [3], 11.9 µM.
For `CN1CCCn2c(C(=O)O)c(CCCOc3cccc4ccccc34)c3cccc(c32)-c2cnn(C)c2C1` (racemic) [Example 1-96, (rac)-7,9-dimethyl-1-[3-(naphthalen-1-yloxy)propyl]-4,5,6,7,8,9-hexahydropyrazolo[3′,4′:7,8][1,5]diazecino[9,10,1-hi]indole-2-carboxylic Acid], the IC50 is 1.44e-05 M in data set [1]; 17.3 nM in data set [4]; 1.84e-05 M in [5]; more than 3.3e-05 M in data set [6]; 2.95e-05 M in [7] (setting [10]); more than 3.3e-05 M in data set [8]. Also, the IC50 in data set [9] was found to be 2.05e-05 M. Further, the results for the EC50 in data set [2] and in data set [3] were 23.9 µM and more than 33 µM, respectively.

(Values after patent publication US10981932B2, “Macrocyclic indole derivatives” (Bayer Aktiengesellschaft, priority 2016, dated 2021).)
